Source: paper PMC12525028, “Blood–Brain Barrier Penetration of Novel 4-Trifluoromethyl-Coumarin Hybrids with Antibacterial Properties as Potential Brain Therapeutics in the Context of Spatially Diverse Healthcare Systems” (International Journal of Molecular Sciences, 2025)
Values after ≈ are worked out from the molar mass of the structure shown. “Also recorded” adds a separate entry of the source. Read-outs that look alike come from different tables or passages of the source.

Key:
[1] = Transfer of coumarins from blood to CSF in sheep (third ventricle CSF, spectrophotometric); conditions: for Mean (μg/mL) Value with Centrifugation (average coumarin concentration in CSF) / Value (μg/mL) Without Centrifugation (average coumarin concentration in CSF): iv infusion 50 mg/500 mL over 15 min; for Mean (μg/mL) Value with Centrifugation (average coumarin concentration in CSF): CSF centrifuged; for Value (μg/mL) Without Centrifugation (average coumarin concentration in CSF): CSF not centrifuged; for change in CSF concentration level after centrifugation: paired data before/after centrifugation; for transfer to the CSF (coumarin concentration level higher than 0) / crossing of the BBB/BCSFB (in words) / metabolism after crossing the BBB/BCSFB (in words): sheep; for transfer to the CSF (coumarin concentration level higher than 0): after centrifugation of CSF; for crossing of the BBB/BCSFB (in words): iv administration; for metabolism after crossing the BBB/BCSFB (in words): from regression and absorbance curves
MTT cytotoxicity assay [2] = conditions: mouse; for viability at 24 h, 0.5 µg/mL: cell viability, BALB/c-3T3, 0.5 µg/mL, MTT
Description: (§1) The cytotoxic effects of the tested peptidomimetics 1–8 on BALB/c-3T3 mouse fibroblast cells and gonadotroph cell lines such αT3-1 came from the ATCC collection.
(§2) All cells were cultured in Petri dishes in DMEM in a 5% CO2 incubator. Balb/c3T3 cells required supplementation with 10% fetal bovine serum (PAA Laboratories, cat. no. A15-751), whereas αT3-1 cells were maintained in monolayer cultures in DMEM supplemented with 10% fetal bovine serum, 100 U/ml penicillin G, and 0.1 mg/mL streptomycin (Invitrogen, China) in humidified 5% CO2, 95% air, at 37 °C. The cells were passed at ~95% confluence using a trypsin-EDTA solution (0.05% trypsin, 0.5 mM EDTA). Cells were kept in phenol red-free medium containing charcoal-treated fetal bovine serum for 4 days before the experiments. All cell lines were periodically treated with plasmacin (Invivogen #ant-mpt-1, 10 μg/mL for 2 weeks) and examined for mycoplasma contamination by DAPI staining or PCR as described in [72, 73, 74, 75].
(§3) Both cell lines were determined using the MTT assay after 24 h of incubation at five concentrations. The MTT test is based on the ability of mitochondrial dehydrogenase enzymes to convert an orange, water-soluble tetrazolium salt (3-(4,5-dimethylthiazol-2-yl)-2,5-diphenyltetrazolium bromide) into an insoluble formazan, which is a dark blue product of the above reaction. After the formazan crystals were placed in DMSO or isopropanol, a colored solution formed, and the intensity was measured spectrophotometrically within the wavelength range of 492–570 nm. The amount of colored reduced MTT was proportional to the oxidative activity of the cell mitochondria and, under strictly defined experimental conditions, to the number of metabolically active (living) cells in the population. The MTT test can also be used to determine cell viability in populations of cells that no longer divide, but are metabolically active.

[3] = Solubility in water (observation); format: physicochemical
[4] = Mass spectrometric determination of coumarin 2 in sheep CSF (ESI, positive mode); format: in vivo; conditions: sheep CSF after administration of compound 2, sodiated ion
Description: All reagents and solvents were purchased from Sigma-Aldrich (Saint Louis, MI, USA). All solvents were of analytical grade and were used without prior distillation. Merck silica gel 60 F254 plates were used for TLC (Thin-Layer Chromatography) analysis. The crude reaction mixtures were purified using column chromatography on Merck silica gel 60/230–400 mesh (Rahway, NJ, USA), with an appropriate mixture of hexanes and ethyl acetate as eluent. Nuclear magnetic resonance (NMR) spectra were performed on a Varian apparatus (Varian, Saint Louis, MI, USA) (400 MHz) and (500 MHz); the mass spectrometer was from Waters Company, Milford, MA, USA. Chemical shifts are expressed in ppm and the coupling constant (J) is expressed in Hz using TMS as an internal standard. […] Cerebrospinal fluid (CSF) samples were analyzed for the presence of the investigated coumarin derivative 2 using a SCIEX API 3000 triple quadrupole mass spectrometer (Science, Engineering, and Technology (SCIEX, Concord, ON, Canada)) equipped with an electrospray ionization (ESI) source operated in positive ion mode.
Sheep CSF samples were collected and stored at −80 °C until further analysis. […] The samples were analyzed using a SCIEX API 3000 triple quadrupole mass spectrometer equipped with an electrospray ionization (ESI) source operating in positive ion mode. […]

MTT cytotoxicity assay [5] = conditions: mouse, αT3-1 pituitary gonadotrope cells; for viability at 24 h, 0.5 µg/mL: cell viability, αT3-1, 0.5 µg/mL, MTT
Description: as §1, §2, §3

[6] = in vivo; for crossing of the BBB/BCSFB (in words): iv
in vitro [7] = conditions: mouse, cell viability, BALB/c-3T3, 0.5 µg/mL, MTT
Description: as §1, §2, §3

in vitro [8] = conditions: mouse, cell viability, αT3-1, 0.5 µg/mL, MTT
Description: as §1, §2, §3

[9] = BALB/c-3T3 mouse embryonic fibroblast cells

With `COc1ccc(CNC(=O)C(c2ccc(OC)cc2)N(C(=O)CCCC(=O)O)c2ccc3c(C)cc(=O)oc3c2)cc1` (centres unmarked) [Compound 1] the “Mean (μg/mL) Value with Centrifugation (average coumarin concentration in CSF)” value ([1]; sheep CSF) was 2 (+/−5) μg/mL and the “Value (μg/mL) Without Centrifugation (average coumarin concentration in CSF)” value (“Value (μg/mL) Without Centrifugation” for short) ([1]; sheep CSF) was 10 (+/−5) μg/mL.

For `CCOC(=O)CNC(=O)C(Nc1ccc2c(C(F)(F)F)cc(=O)oc2c1)c1ccccc1` (centres unmarked) [Compound 2], the “Value (μg/mL) Without Centrifugation” value ([1]; sheep CSF) was 350 (+/−5) μg/mL, the “average coumarin concentration in CSF after centrifugation” value ([1]; sheep CSF, iv infusion, after centrifugation) was 118.32 µg/mL and the “average coumarin concentration in CSF before centrifugation” value ([1]; sheep CSF, iv infusion, before centrifugation) was 355.85 µg/mL. The “change in CSF concentration level after centrifugation” value ([1]; sheep CSF) was “significant decrease”, the “transfer to the CSF (coumarin concentration level higher than 0)” value (from here on “transfer to the CSF”) [1] was “statistically confirmed” and the IC50 at 24 h (MTT cytotoxicity assay [2]) was 6.58 µg/mL (≈ 14.7 µM). The “solubility in water (in words)” value [3] was “does not dissolve in water”, the “detection in CSF by ESI-MS” value [4] was “presence of the compound as its sodiated ion” and the IC50 at 24 h (MTT cytotoxicity assay [5]) was 6.58 µg/mL (≈ 14.7 µM). For the same molecule, the “crossing of the BBB/BCSFB (in words)” value [6] was “penetrated the blood–brain barrier to the greatest extent” and the “protein binding (in words)” value ([6]; sheep) was “binds well to proteins”.

With `COc1ccc(CNC(=O)C(c2ccccc2)N(C(=O)CCCC(=O)O)c2ccc3c(C)cc(=O)oc3c2)cc1` (centres unmarked) [Compound 3] the “Value (μg/mL) Without Centrifugation” value ([1]; sheep CSF) was 2.5 (+/−5) μg/mL, the “crossing of the BBB/BCSFB (in words)” value [1] was “crossed the BBB/BCSFB” and the “metabolism after crossing the BBB/BCSFB (in words)” value [1] was “partially metabolized”. For the same molecule, the viability at 24 h, 0.5 µg/mL (MTT cytotoxicity assay [2]; [9]) was over 96% and the viability at 24 h, 0.5 µg/mL (MTT cytotoxicity assay [5]) was over 96%.

`CCOC(=O)CNC(=O)C(Nc1ccc2c(C(F)(F)F)cc(=O)oc2c1)c1ccc(OC)cc1` (centres unmarked) [Compound 4] gave a viability at 24 h, 0.5 µg/mL (in vitro [7]) of over 96% and a viability at 24 h, 0.5 µg/mL (in vitro [8]) of over 96%.

In the case of `CCOC(=O)CNC(=O)C(c1ccc(OC)cc1)N(C(=O)Cc1ccccc1)c1ccc2c(C)cc(=O)oc2c1` (centres unmarked) [Compound 5], the “Value (μg/mL) Without Centrifugation” value ([1]; sheep CSF) was 5 (+/−5) μg/mL, the “crossing of the BBB/BCSFB (in words)” value [1] was “crossed the BBB/BCSFB” and the “metabolism after crossing the BBB/BCSFB (in words)” value [1] was “partially metabolized”. It also gave a viability at 24 h, 0.5 µg/mL (MTT cytotoxicity assay [2]; [9]) of over 96% and a viability at 24 h, 0.5 µg/mL (MTT cytotoxicity assay [5]) of over 96%.

In the case of `Cc1cc(=O)oc2cc(/N=C/c3ccccc3)ccc12` [Compound 6], the “Value (μg/mL) Without Centrifugation” value ([1]; sheep CSF) was 8 (+/−5) μg/mL, the viability at 24 h, 0.5 µg/mL (MTT cytotoxicity assay [2]; [9]) was over 96% and the viability at 24 h, 0.5 µg/mL (MTT cytotoxicity assay [5]) was over 96%.

With `CCOC(=O)CNC(=O)C(Nc1ccc2c(C(F)(F)F)cc(=O)oc2c1)c1ccc(Br)cc1` (centres unmarked) [Compound 7] the “metabolism after crossing the BBB/BCSFB (in words)” value [6] was “partially metabolized”, the “transfer to the CSF” value [6] was “statistically confirmed” and the “crossing of the BBB/BCSFB (in words)” value [6] was “crossed the BBB/BCSFB”.

For `COc1ccc(CNC(=O)C(c2ccc(Br)cc2)N(C(=O)Cc2ccccc2)c2ccc3c(C)cc(=O)oc3c2)cc1` (centres unmarked) [Compound 8], the “Mean (μg/mL) Value with Centrifugation (average coumarin concentration in CSF)” value ([1]; sheep CSF) was 20 (+/−5) μg/mL, the “Value (μg/mL) Without Centrifugation” value ([1]; sheep CSF) was 30 (+/−5) μg/mL and the “change in CSF concentration level after centrifugation” value ([1]; sheep CSF) was “significant decrease”. For the same molecule, the “transfer to the CSF” value [1] was “statistically confirmed”, the “crossing of the BBB/BCSFB (in words)” value [1] was “penetrated the blood–brain barrier to the greatest extent; also recorded: capable of crossing the blood–brain barrier” and the IC50 at 24 h (MTT cytotoxicity assay [2]; [9]) was 1.71 µg/mL (≈ 2.73 µM). It also gave an IC50 at 24 h (MTT cytotoxicity assay [5]) of 1.71 µg/mL (≈ 2.73 µM).
